For 13 molecules, inhibition results are on record in patent publication US8138197B2, “Spirochromanon derivatives” (MSD K.K., priority 2007, dated 2012).

The target of one test is human ACC1 (Homo sapiens, UniProt Q13085). Nature of the test: Acetyl CoA carboxylase (ACC) activity inhibition test, human ACC1. The format is biochemical. The conditions noted are these: 1 μmol/liter compound; [14C] bicarbonate fixation, 37° C., 40 minutes; read-out: Inhibition (%) by 1 μmol/liter Chemical, human ACC1. Here is the method: (§1) A. Pharmacological Test Example (Acetyl CoA Carboxylase (ACC) Activity Inhibition Test)
(§2) A test compound is dissolved in dimethyl sulfoxide (DMSO) to a concentration of 10 mM and then diluted with DMSO to give a 100-fold concentrated solution of the compound compared with target assay concentration. The ACC enzyme activity inhibition test is carried out according to a modification of Thampy & Wakil's method (J. Biol. Chem., Vol. 260, pp. 6318-6323 (1985)). Concretely, 0.8 μl of the diluted test compound is added to each well of 96-well assay plate (Perkin Elmer Opti Plate), then 40 μl of a substrate solution (50 mM Hepes sodium (pH 7.5), 2 mM DTT, 10 mM ATP, 500 μM acetyl CoA, 0.17 mM NaH[^14C]O3 (58 mCi/mmol, by Amersham), 8 mM NaHCO3) is added to each well, and 40 μL of an enzyme solution ([…] human ACC1 or human ACC2, 50 mM Hepes sodium (pH 7.5), 2 mM DTT, 40 mM MgCl2, 40 mM tripotassium citrate 1 mg/ml fetal bovine serum albumin) is added thereto. Then, the upper side of the plate is sealed up, and the plate is incubated with gently stirring at 37° C. for 40 minutes. Next, 20 μl of 1 N HCl is added to each well to stop the enzyme reaction, and the assay plate is stirred overnight to remove the unreacted NaH[^14C]O3. Next, 100 μl of a scintillator (Perkin Elmer's Microscinti 40) is added to each well and the plate is stirred, then the radioactivity of the fixed [^14C] is counted using a microplate scintillation counter (Perkin Elmer's Topcount), the radioactivity of which represents the enzyme activity in each well. The human ACC1 and human ACC2 enzyme-inhibition activities of the test compounds are calculated, based on the radioactivity of the well added by DMSO without test compound as a control.

The next test concerns the target human ACC2 (Homo sapiens, UniProt O00763). The experiment in a line: Acetyl CoA carboxylase (ACC) activity inhibition test, human ACC2. The format is biochemical. The conditions noted are these: 1 μmol/liter compound; [14C] bicarbonate fixation, 37° C., 40 minutes; read-out: Inhibition (%) by 1 μmol/liter Chemical, human ACC2. Here is the method:
as §1, §2

Sequence of human ACC2 (O00763 whole entry): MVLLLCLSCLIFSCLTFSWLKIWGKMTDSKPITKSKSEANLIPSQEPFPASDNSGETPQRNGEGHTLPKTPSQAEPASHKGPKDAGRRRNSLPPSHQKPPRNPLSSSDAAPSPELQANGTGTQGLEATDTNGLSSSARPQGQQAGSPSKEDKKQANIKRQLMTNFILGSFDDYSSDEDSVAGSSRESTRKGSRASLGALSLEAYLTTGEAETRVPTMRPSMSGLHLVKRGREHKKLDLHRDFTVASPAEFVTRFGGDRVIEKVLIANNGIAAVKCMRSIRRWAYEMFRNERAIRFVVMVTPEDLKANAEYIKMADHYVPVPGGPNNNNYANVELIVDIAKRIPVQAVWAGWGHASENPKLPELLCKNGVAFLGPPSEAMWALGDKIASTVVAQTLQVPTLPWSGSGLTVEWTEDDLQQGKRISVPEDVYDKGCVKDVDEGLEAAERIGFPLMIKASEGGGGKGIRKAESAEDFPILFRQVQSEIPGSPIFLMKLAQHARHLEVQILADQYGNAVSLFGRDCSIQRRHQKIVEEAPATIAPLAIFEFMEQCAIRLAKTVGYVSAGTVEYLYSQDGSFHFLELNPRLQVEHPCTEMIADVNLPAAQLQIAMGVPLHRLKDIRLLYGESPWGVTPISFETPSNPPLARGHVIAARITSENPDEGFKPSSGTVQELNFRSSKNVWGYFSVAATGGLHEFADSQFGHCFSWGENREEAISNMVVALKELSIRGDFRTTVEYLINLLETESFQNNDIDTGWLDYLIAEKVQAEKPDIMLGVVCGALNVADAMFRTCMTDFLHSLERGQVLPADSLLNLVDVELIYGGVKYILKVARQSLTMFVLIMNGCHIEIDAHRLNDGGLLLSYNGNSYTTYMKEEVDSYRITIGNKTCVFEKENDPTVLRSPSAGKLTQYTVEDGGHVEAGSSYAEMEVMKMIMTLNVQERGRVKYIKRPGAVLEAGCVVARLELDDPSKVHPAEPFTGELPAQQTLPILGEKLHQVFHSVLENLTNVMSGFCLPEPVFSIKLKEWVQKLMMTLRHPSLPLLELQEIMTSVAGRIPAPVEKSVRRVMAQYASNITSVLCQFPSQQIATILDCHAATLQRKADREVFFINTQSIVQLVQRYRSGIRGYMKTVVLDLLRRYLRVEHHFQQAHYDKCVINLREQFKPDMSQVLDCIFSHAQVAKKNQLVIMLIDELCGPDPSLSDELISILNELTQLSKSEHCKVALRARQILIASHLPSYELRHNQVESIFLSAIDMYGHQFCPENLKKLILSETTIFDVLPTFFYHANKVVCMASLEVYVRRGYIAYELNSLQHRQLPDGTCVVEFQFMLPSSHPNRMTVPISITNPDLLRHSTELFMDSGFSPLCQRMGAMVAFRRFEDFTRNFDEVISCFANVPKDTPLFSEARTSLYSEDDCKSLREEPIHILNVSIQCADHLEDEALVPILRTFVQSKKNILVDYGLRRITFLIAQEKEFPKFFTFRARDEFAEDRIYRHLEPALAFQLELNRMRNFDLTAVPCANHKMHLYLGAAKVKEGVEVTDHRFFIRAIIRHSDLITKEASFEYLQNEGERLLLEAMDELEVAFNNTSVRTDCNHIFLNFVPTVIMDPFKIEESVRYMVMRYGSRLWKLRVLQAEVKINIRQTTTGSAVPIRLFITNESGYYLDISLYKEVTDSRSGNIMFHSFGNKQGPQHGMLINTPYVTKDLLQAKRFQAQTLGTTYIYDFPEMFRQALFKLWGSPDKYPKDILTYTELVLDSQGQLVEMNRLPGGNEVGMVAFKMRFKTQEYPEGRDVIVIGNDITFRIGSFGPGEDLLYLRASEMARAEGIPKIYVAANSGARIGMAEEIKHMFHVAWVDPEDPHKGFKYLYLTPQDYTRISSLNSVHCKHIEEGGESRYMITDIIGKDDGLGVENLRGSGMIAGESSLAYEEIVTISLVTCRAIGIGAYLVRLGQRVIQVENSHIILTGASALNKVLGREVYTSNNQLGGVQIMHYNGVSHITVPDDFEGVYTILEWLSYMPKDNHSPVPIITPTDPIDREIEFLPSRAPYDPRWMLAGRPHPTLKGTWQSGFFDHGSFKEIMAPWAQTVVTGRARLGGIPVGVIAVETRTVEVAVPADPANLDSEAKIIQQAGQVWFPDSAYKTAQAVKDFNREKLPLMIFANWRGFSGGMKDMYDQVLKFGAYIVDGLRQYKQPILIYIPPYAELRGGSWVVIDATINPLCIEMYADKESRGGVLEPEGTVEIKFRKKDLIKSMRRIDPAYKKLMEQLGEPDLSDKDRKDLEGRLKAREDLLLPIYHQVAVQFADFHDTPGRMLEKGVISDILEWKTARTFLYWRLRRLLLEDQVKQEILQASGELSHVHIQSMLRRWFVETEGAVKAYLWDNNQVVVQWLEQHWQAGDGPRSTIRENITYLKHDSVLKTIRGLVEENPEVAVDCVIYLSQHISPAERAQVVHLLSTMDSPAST

`COc1cc(C(=O)N2CCC3(CC2)CC(=O)c2cc(-c4nnn[nH]4)ccc2O3)cc(OC)c1-c1ccccc1` [Example 5]: the inhibition at 1 µM on human ACC1 was determined as 94%; on human ACC2 it was 97%.

In the case of `CCOc1cc(C(=O)N2CCC3(CC2)CC(=O)c2cc(-c4nnn[nH]4)ccc2O3)cc(OCC)c1-c1cnn(C)c1` [Example 12, 1′-{[3,5-Diethoxy-4-(1-methyl-1H-pyrazol-4-yl)phenyl]carbonyl}-6-(tetrazol-5-yl)spiro[chroman-2,4′-piperidin]-4-one], the inhibition at 1 µM came out at 100% on human ACC1 and 99% on human ACC2.

With `CCOc1cc(C(=O)N2CCC3(CC2)CC(=O)c2cc(-c4cncc(C(=O)O)c4)ccc2O3)cc(OCC)c1-c1cnn(C)c1` [Example 25, 5-(1′-{[3,5-Diethoxy-4-(1-methyl-1H-pyrazol-4-yl)phenyl]carbonyl}-4-oxospiro[chroman-2,4′-piperidin]-6-yl)pyridine-3-carboxylic acid], the inhibition at 1 µM at human ACC1 was 100%; at human ACC2, 99%.

Take `CCOc1cc(C(=O)N2CCC3(CC2)CC(=O)c2cc(-c4nnn[nH]4)ccc2O3)cc(OC)c1-c1cnn(C)c1` [Example 29, 1′-{[3-Ethoxy-5-methoxy-4-(1-methyl-1H-pyrazol-4-yl)phenyl]carbonyl}-6-(tetrazol-5-yl)spiro[chroman-2,4′-piperidin]-4-one]: the inhibition at 1 µM on human ACC1 and on human ACC2 was 99% throughout.

For the molecule `CCOc1cc(C(=O)N2CCC3(CC2)CC(=O)c2cc(-c4ccnc(C(=O)O)c4)ccc2O3)cc(OCC)c1-c1cnn(C)c1` [Example 37, 4-(1′-{[3,5-Diethoxy-4-(1-methyl-1H-pyrazol-4-yl)phenyl]carbonyl}-4-oxospiro[chroman-2,4′-piperidin]-6-yl)pyridine-2-carboxylic acid], the inhibition at 1 µM was 100% on human ACC1 and 99% on human ACC2.

Turning to `Cn1cc(-c2ccc3c(c2)C(=O)CC2(CCN(C(=O)c4cc(-c5nnn[nH]5)c5ccn(C6CC6)c5c4)CC2)O3)cn1` [Example 42, 1′-{[1-Cyclopropyl-4-(tetrazol-5-yl)-1H-indol-6-yl]carbonyl}-6-(1-methyl-1H-pyrazol-4-yl)spiro[chroman-2,4′-piperidin]-4-one], the inhibition at 1 µM turned out to be 98% at human ACC1 and 99% at human ACC2.

As for `Cc1nn(-c2ccccn2)c2sc(C(=O)N3CCC4(CC3)CC(=O)c3cc(-c5nnn[nH]5)ccc3O4)cc12` [Example 51, 1′-[(3-Methyl-1-pyridin-2-yl-1H-thieno[2,3-c]pyrazol-5-yl)carbonyl]-6-(tetrazol-5-yl)spiro[chroman-2,4′-piperidin]-4-one], the values for the inhibition at 1 µM at human ACC1 and on human ACC2 were 98% and 89%, respectively.

Consider `Cn1nc(-c2ccccc2)c2ccc(C(=O)N3CCC4(CC3)CC(=O)c3cc(-c5nnn[nH]5)ccc3O4)cc21` [Example 56, 1′-[(1-Methyl-3-phenyl-1H-indazol-6-yl)carbonyl]-6-(tetrazol-5-yl)spiro[chroman-2,4′-piperidin]-4-one], for which the inhibition at 1 µM on human ACC1 was 99%; on human ACC2 it was 98%.

Consider `CCOc1cc(C(=O)N2CCC3(CC2)CC(=O)c2cc(-c4nnn(COC(=O)C(C)(C)C)n4)ccc2O3)cc(OC)c1-c1cnn(C)c1` [Example 63, (5-{1′-[3-ethoxy-5-methoxy-4-(1-methyl-1H-pyrazol-4-yl)benzoyl]-4-oxospiro[chroman-2,4′-piperidin]-6-yl}-2H-tetrazol-2-yl)methylpivalate], for which the inhibition at 1 µM at human ACC1 was determined as 93%; on human ACC2 it was 97%.

Consider `COc1cc(C(=O)N2CCC3(CC2)CC(=O)c2cc(-c4ccc(C(N)=O)cn4)ccc2O3)cc(OC)c1-c1cnn(C)c1` [Example 68, 6-{1′-[3,5-dimethoxy-4-(1-methyl-1H-pyrazol-4-yl)benzoyl]-4-oxospiro[chroman-2,4′-piperidin]-6-yl}nicotinamide], for which the inhibition at 1 µM on human ACC1 and on human ACC2 was 99% throughout.

With `CCOc1cc(C(=O)N2CCC3(CC2)CC(=O)c2cc(-c4ccc(C(=O)O)cn4)ccc2O3)cc(OCC)c1-c1cnn(C)c1` [Example 71, Sodium 6-{1′-[3,5-diethoxy-4-(1-methyl-1H-pyrazol-4-yl)benzoyl]-4-oxospiro[chroman-2,4′-piperidin]-6-yl}nicotinate], the inhibition at 1 µM on human ACC1 and on human ACC2 was 99% in each case.

In the case of `CCOc1cc(C(=O)N2CCC3(CC2)CC(=O)c2cc(-c4ccc(C(N)=O)cn4)ccc2O3)cc(OC)c1-c1cnn(C)c1` [Example 77, 6-{1′-[3-ethoxy-5-methoxy-4-(1-methyl-1H-pyrazol-4-yl)benzoyl]-4-oxospiro[chroman-2,4′-piperidin]-6-yl}nicotinamide], the inhibition at 1 µM on human ACC1 and at human ACC2 was 99% each time.

`CCOc1cc(C(=O)N2CCC3(CC2)CC(=O)c2cc(-c4cnn(C)c4)ccc2O3)cc(OC)c1-c1cnn(C)c1` [Example 79, 1′-[3-Ethoxy-5-methoxy-4-(1-methyl-1H-pyrazol-4-yl)benzoyl]-6-(1-methyl-1H-pyrazol-4-yl)spiro[chroman-2,4′-piperidin]4-one]: the inhibition at 1 µM at human ACC1 and at human ACC2 was 99% throughout.
